On the set-up of data set [1]: method as in PMID 26011730. Conditions: cited from earlier work.
In data set [2] the test system is mouse model of fragile X syndrome. Further details: method as in PMID 32566916. Conditions: cited from earlier work.
The next data set deals with T1, Y5.38F 5-HT1A receptor (Homo sapiens, UniProt P08908, Y195F).
T1 sequence (P08908 1-422 Y195F): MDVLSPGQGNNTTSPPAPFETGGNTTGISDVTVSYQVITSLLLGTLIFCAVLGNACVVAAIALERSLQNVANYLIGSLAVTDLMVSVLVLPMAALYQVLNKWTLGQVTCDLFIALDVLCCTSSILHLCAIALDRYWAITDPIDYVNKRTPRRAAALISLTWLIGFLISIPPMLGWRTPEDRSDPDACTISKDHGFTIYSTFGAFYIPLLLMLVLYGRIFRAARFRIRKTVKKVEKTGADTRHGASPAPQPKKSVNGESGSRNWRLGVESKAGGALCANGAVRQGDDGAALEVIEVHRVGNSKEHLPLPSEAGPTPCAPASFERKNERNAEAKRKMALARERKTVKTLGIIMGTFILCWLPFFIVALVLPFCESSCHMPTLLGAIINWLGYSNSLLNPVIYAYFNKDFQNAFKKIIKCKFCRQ
The experiment in a line: Radioligand binding, Y5.38F 5-HT1A.

In another data set the target is T2, N7.39T 5-HT1A receptor (Homo sapiens, UniProt P08908, N386T).
T2 sequence (P08908 1-422 N386T): T1 sequence (P08908 1-422 Y195F) with F195Y, N386T
The experiment in a line: cAMP accumulation in HEK293T cells, N7.39T 5-HT1A. The format is cell-based. Further details: mutated in house (Quikchange II) HTR01A0000; host or cells: HEK293T. Conditions: point-mutated receptor, 3 independent experiments, read-out: pEC50 5-HT1A Receptor N7.39T (converted). How it is done:
Briefly, cells transfected with the desired receptor construct and compounds were incubated in the dark for 90 min at 37 °C. After incubation, cAMP detection reagents were added, and TR-FRET was used to quantify the cAMP produced.
The functional activity of compounds was determined by stimulating cells expressing the desired receptor with FSK and test compound in parallel with 12 known concentrations of cAMP. The known concentrations of cAMP were used to create a standard curve for each experiment that was used to interpolate the unknown values of cAMP in wells with test compounds. […] The EC50 and EMAX values were determined using the “dose response – log[agonist] vs response (three parameter)” nonlinear regression model in Prism and transformed to pEC50 values, reported as mean ± SD.
Summary of functional assay conditions at various 5-HT1 receptor point mutation constructs.
Background: cAMP levels reflect the balance of adenylyl cyclase and phosphodiesterase activity.

In another data set the target is T3, Y5.38A 5-HT1A receptor (Homo sapiens, UniProt P08908, Y195A).
T3 sequence (P08908 1-422 Y195A): T1 sequence (P08908 1-422 Y195F) with F195A
Put plainly: Radioligand binding, Y5.38A 5-HT1A.

A further data set has as its target T4, S5.42A 5-HT1A receptor (Homo sapiens, UniProt P08908, S199A).
T4 sequence (P08908 1-422 S199A): T1 sequence (P08908 1-422 Y195F) with F195Y, S199A
Put plainly: Radioligand binding, S5.42A 5-HT1A.

Positions count from the first letter of the chain named.

Method for S5.42A 5-HT1A receptor: (§1) 48 hours after transfection with the desired receptor construct, cells were isolated for saturation and competition binding assays as previously described.[47],[48],[57] Saturation and competition radioligand binding assays were conducted in an assay buffer consisting of 50 mM Tris HCl, 10 mM MgCl2, and 0.1 mM EDTA in filtered deionized water. […] Briefly, 5–10 μg of the receptor protein, as determined by a Thermo Fisher Pierce BCA protein assay kit, was incubated with 8 concentrations of radioligand in triplicate to determine total binding. […] Nonspecific binding was determined as above for saturation assays.
(§2) For radioligand binding data, nonspecific binding was subtracted from the total binding to get specific binding. Saturation binding data was fit to the “binding saturation-specific binding with hill slope” model. Competition binding data were fit to the “binding competition-one-site fit Ki” non-linear regression model and transformed to pKi values, reported as mean ± SD.
(§3) is 50 mM Tris HCl, 10 mM MgCl2 and 0.1 mM EDTA in filtered deionized water.
Method for Y5.38A 5-HT1A receptor: as §1, §2, §3
Method for Y5.38F 5-HT1A receptor: as §1, §2, §3

With `CN(C)[C@H]1CCc2c(cccc2-c2ccccc2F)C1` [(S)-FPT], in data set [1], the oral activity entry is “orally active” and the sedation result was “did not cause sedation”. In data set [2], the prosocial behaviors result is recorded as “increased”, the repetitive behaviors result is given as “reduced” and the spontaneous seizures entry was “reduced”.

On to `CN(C)[C@H]1CCc2c(cccc2-c2cccc3ccccc23)C1` [(S)-NAP], for which the inhibitory constant (Ki) (commonly the dissociation constant of the complex between target and ligand, obtained from inhibition or displacement) at Y5.38F 5-HT1A receptor was 60.3 nM; on Y5.38A 5-HT1A receptor it was 245 nM; at S5.42A 5-HT1A receptor it was 63.1 nM. Also, the EC50 at N7.39T 5-HT1A receptor was 347 nM.

With `Fc1ccccc1-c1cccc2c1CC[C@H](N1CCCC1)C2` [(S)-PFPT], the inhibition constant Ki at Y5.38F 5-HT1A receptor was 1.74 nM; on Y5.38A 5-HT1A receptor, 0.955 nM; at S5.42A 5-HT1A receptor it was 1.48 nM. Besides, the EC50 at N7.39T 5-HT1A receptor was 25.1 nM.

The values above are taken from publication PMC10797628.
